The values that follow come from patent US20120022143A1, “RNA Interference Mediated Inhibition of the Thymic Stromal Lymphopoietin (TSLP) Gene Expression Using Short Interfering Nucliec Acid (siNA)” (Merck Sharp & Dohme Corp, priority 2009, published 2012).

[invAb] = inverted abasic unit; m = 2'-O-methyl; r = 2'-OH (RNA); f = 2'-fluoro

One data set deals with mTSLP mRNA. In words: Initial screening: mouse TSLP mRNA knock-down by RT-PCR (Taqman) after RNAiMax transfection of NIH 3T3 cells. The format is cell-based. To be noted: 10 nM siNA, 24 hrs post-transfection, mean ± s.d., summary from 2 screens. How it is done:
(§1) All cells were obtained from ATCC (Manassas, Va.) unless otherwise indicated. Cells were grown and transfected under standard conditions, which are detailed below for each cell line.
NIH 3T3 (murine; ATCC cat#CRL-1658): Cells were cultured at 37° C. in the presence of 5% CO2 and grown in Dulbecco's modified Eagle's medium (DMEM) with 4 mM L-glutamine adjusted to contain 1.5 g/L sodium bicarbonate and 4.5 g/L glucose and supplemented with fetal bovine serum at a final concentration of 10% and 100 μg/mL of streptomycin and 100 U/mL penicillin.
(§2) All transfections were performed using RNAiMax (Invitrogen Cat# 13778-150) as per the manufacturer's instructions.
(§3) Both human and murine cell lines were transfected in the similar fashion. Cells were plated in all wells of a tissue-culture treated, 96-well plate at a final count of 5,000 cells/well in […], of appropriate culture media. Cells were cultured for 24 hours after plating at 37° C. in the presence of 5% CO2.
(§4) After 24 hours, complexes containing siNA and RNAiMax were created as follows: A solution of RNAiMax diluted 33-fold in OPTI-MEM was prepared. In parallel, solutions of the siNAs for testing were prepared to a final concentration of 120 nM in OPTI-MEM. After incubation of RNAiMax/OPTI-MEM solution at room temperature for 5 min, an equal volume of the siNA solution and the RNAiMax solution were added together for each of the siNAs.
(§5) This solution was incubated at room temperature for 20 minutes. After incubation, 20 uL of the solution was added to each of the relevant wells.
(§6) The final concentration of siNA in each well was 10 nM and the final volume of RNAiMax in each well was 0.3 ul.
(§7) The time of incubation with the RNAiMax-siNA complexes was 24 hours, unless otherwise indicated. There was no change in media between the transfection and harvesting of the cells unless otherwise indicated.
(§8) RNA was extracted from a 96-well plate using the TaqMan® Gene Expression Cells-to-CT™ Kit (Cat# 4399002) with a modified protocol. Briefly, a 60 uL (1 plate) or 110 uL (2 plates) of the Lysis Solution with DNase I was dispensed into each well of the Lysis Buffer Plate (twin.tec full skirt plate). The lysis buffer and stop plates were stored at 4° C. until the cells were washed.
(§9) The plate was spun at 1100 rpm for 5 minutes. The culture medium was aspirated and discarded from the wells of the culture plate. The lysis was performed automatically using a BioMek FX instrument and method. After the Biomek method was completed, the lysis plate was incubated for 2 min. at room temperature. The lysis plate can be stored for 2 hours at 4° C., or at −20° C. or −80° C. for two months.
(§10) Each well of the reverse transcription plate required 10 uL of 2× reverse transcriptase Buffer, luL of 20× reverse transcription enzyme and 2 uL of nuclease-free water. The reverse transcription master mix was prepared by mixing 2× reverse transcription buffer, 20× reverse transcription enzyme mix, and nuclease-free water. 13 uL of the reverse transcription master mix was dispensed into each well of the reverse transcription plate (semi-skirted). A separate reverse transcription plate was prepared for each cell plate. The plate was loaded onto a Biomek NX or Biomek FX Dual-96 and the Biomek method was run. The program is programmed to automatically added 7 uL of lysate from the cell lysis procedure described above into each well of the reverse transcription plate. The plate is sealed and spun on a centrifuge (1000 rpm for 30 seconds) to settle the contents to the bottom of the reverse transcription plate. The plate is placed in a thermocycler at 37° C. for 60 min, 95° C. for 5 min, and 4° C. until the plate is removed from the thermocycler. Upon removal, if not used immediately, the plate was frozen at −20° C.
A series of probes and primers were used to detect the various mRNA transcripts of the genes of TSLP, IL-8 and GAPDH in human cell lines. […]
In general terms: Real-time PCR tracks product formation cycle by cycle.

Another data set has as its system TSLP mRNA. In words: Initial screening: TSLP mRNA knock-down by RT-PCR (Taqman) after RNAiMax transfection of NHLF cells. The following applies: 10 nM siNA, human NHLF cells, 24 hrs post-transfection, relative to non-targeting control, normalized to GAPDH; mean ± s.d. from 2 experiments. The format is cell-based. How it is done:
as §1
NHLF (human; Lonza cat# CC-2512): Cells were cultured at 37° C. in the presence of 5% CO2 and grown Fibroblast Basal Medium (Lonza cat# CC-3β2) supplemented growth factors (provided with the kit) and 100 μg/mL of streptomycin and 100 U/mL penicillin.
as §2, §3, §4, §5, §6, §7, §8, §9, §10
A series of probes and primers were used to detect the various mRNA transcripts of the genes of TSLP, IL-8 and GAPDH in human cell lines. All the Taqman probes and primers for the experiments here-in described were supplied as pre-validated sets by Applied Biosystems, Inc. (see Table 2). […]

As to “25444-DC: siNA duplex: sense B GuGucAcAAuuAcAAGGAu TTB (SEQ ID NO: 71), antisense AUCcuuGuAAuuGuGAcAcUU (SEQ ID NO: 72) (sense GUGUCACAAUUACAAGGAUTT; antisense AUCCUUGUAAUUGUGACACUU; sense: DNA at AGT, 2'-fluoro at CU, [invAb] at 5' end, 3' end, backbone not given here; antisense: sugars from the 5' end rrrfffmfmmffmfmmfmfmm, backbone not given here)”, in the data set on mTSLP mRNA, the “% KD mTSLP NIH3T3” value is 19.5 ± 19%. For the same substance, the “% KD TSLP” value in the data set with TSLP mRNA was 80 ± 5.3%.

Consider “25445-DC: siNA duplex: sense B GGGAuAGAAAAGuAGGuAA TTB (SEQ ID NO: 73), antisense UUAccuAcuuuucuAucccUU (SEQ ID NO: 74) (sense GGGAUAGAAAAGUAGGUAATT; antisense UUACCUACUUUUCUAUCCCUU; sense: DNA at AGT, 2'-fluoro at U, [invAb] at 5' end, 3' end, backbone not given here; antisense: sugars from the 5' end rrrfffmfffffffmffffmm, backbone not given here)”, for which the “% KD mTSLP NIH3T3” value in the data set on mTSLP mRNA stood at 36.1 ± 1.6%. In the data set with TSLP mRNA, the “% KD TSLP” value is −66 ± 42.7%.

Consider “25447-DC: siNA duplex: sense B uuuGuGAAcAcuuuuGAAA TTB (SEQ ID NO: 77), antisense UUUcAAAAGuGuucAcAAAUU (SEQ ID NO: 78) (sense UUUGUGAACACUUUUGAAATT; antisense UUUCAAAAGUGUUCACAAAUU; sense: DNA at AGT, 2'-fluoro at CU, [invAb] at 5' end, 3' end, backbone not given here; antisense: sugars from the 5' end rrrfmmmmmfmfffmfmmmmm, backbone not given here)”, for which the “% KD mTSLP NIH3T3” value in the data set with mTSLP mRNA is listed as 18.5 ± 3.8%. Also, the “% KD TSLP” value in the data set on TSLP mRNA is 84 ± 4.6%.

In the case of “25448-DC: siNA duplex: sense B uGuGAAcAcuuuuGAAAAu TTB (SEQ ID NO: 79), antisense AUUuucAAAAGuGuucAcAUU (SEQ ID NO: 80) (sense UGUGAACACUUUUGAAAAUTT; antisense AUUUUCAAAAGUGUUCACAUU; sense: DNA at AGT, 2'-fluoro at CU, [invAb] at 5' end, 3' end, backbone not given here; antisense: sugars from the 5' end rrrfffmmmmmfmfffmfmmm, backbone not given here)”, the “% KD mTSLP NIH3T3” value in the data set with mTSLP mRNA was 45.1 ± 6.3%. Besides, the “% KD TSLP” value in the data set on TSLP mRNA stood at 80 ± 7%.

For “25451-DC: siNA duplex: sense B uAAuuAcAGAAGAGuuucu TTB (SEQ ID NO: 85), antisense AGAAAcucuucuGuAAuuAUU (SEQ ID NO: 86) (sense UAAUUACAGAAGAGUUUCUTT; antisense AGAAACUCUUCUGUAAUUAUU; sense: DNA at AGT, 2'-fluoro at CU, [invAb] at 5' end, 3' end, backbone not given here; antisense: sugars from the 5' end rrrmmfffffffmfmmffmmm, backbone not given here)”, the “% KD mTSLP NIH3T3” value with mTSLP mRNA is reported as −37.4 ± 15.7%. For the same substance, in the data set with TSLP mRNA, the “% KD TSLP” value came out at 76 ± 16.4%.

As for “25452-DC: siNA duplex: sense B uuGuGAAcAcuuuuGAAAA TTB (SEQ ID NO: 87), antisense UUUucAAAAGuGuucAcAAUU (SEQ ID NO: 88) (sense UUGUGAACACUUUUGAAAATT; antisense UUUUCAAAAGUGUUCACAAUU; sense: DNA at AGT, 2'-fluoro at CU, [invAb] at 5' end, 3' end, backbone not given here; antisense: sugars from the 5' end rrrffmmmmmfmfffmfmmmm, backbone not given here)”, in the data set with mTSLP mRNA, the “% KD mTSLP NIH3T3” value amounted to 36.4 ± 7.9%. Further, the “% KD TSLP” value in the data set on TSLP mRNA was 86 ± 3%.

Consider “25453-DC: siNA duplex: sense B AuuAcAGAAGAGuuucuuA TTB (SEQ ID NO: 89), antisense UAAGAAAcucuucuGuAAuUU (SEQ ID NO: 90) (sense AUUACAGAAGAGUUUCUUATT; antisense UAAGAAACUCUUCUGUAAUUU; sense: DNA at AGT, 2'-fluoro at CU, [invAb] at 5' end, 3' end, backbone not given here; antisense: sugars from the 5' end rrrmmmmfffffffmfmmfmm, backbone not given here)”, for which the “% KD mTSLP NIH3T3” value in the data set with mTSLP mRNA is on record as −8.6 ± 12.2%. Also, the “% KD TSLP” value with TSLP mRNA turned out to be 81 ± 10.5%.

As for “25454-DC: siNA duplex: sense B AAuuuAuuuuGuGAAcAcu TTB (SEQ ID NO: 91), antisense AGUGuucAcAAAAuAAAuuUU (SEQ ID NO: 92) (sense AAUUUAUUUUGUGAACACUTT; antisense AGUGUUCACAAAAUAAAUUUU; sense: DNA at AGT, 2'-fluoro at CU, [invAb] at 5' end, 3' end, backbone not given here; antisense: sugars from the 5' end rrrmfffmfmmmmfmmmffmm, backbone not given here)”, the “% KD mTSLP NIH3T3” value in the data set with mTSLP mRNA amounted to 30.7 ± 22.5%. For the same substance, in the data set with TSLP mRNA, the “% KD TSLP” value is recorded as 63 ± 16.9%.

As to “25455-DC: siNA duplex: sense B AcAGAAGAGuuucuuAAcu TTB (SEQ ID NO: 93), antisense AGUuAAGAAAcucuucuGuUU (SEQ ID NO: 94) (sense ACAGAAGAGUUUCUUAACUTT; antisense AGUUAAGAAACUCUUCUGUUU; sense: DNA at AGT, 2'-fluoro at CU, [invAb] at 5' end, 3' end, backbone not given here; antisense: sugars from the 5' end rrrfmmmmmmfffffffmfmm, backbone not given here)”, the “% KD mTSLP NIH3T3” value in the data set on mTSLP mRNA was determined as 4.9 ± 26%. In the data set on TSLP mRNA, the “% KD TSLP” value came out at 79 ± 11.3%.

On to “25456-DC: siNA duplex: sense B uccuGAAAAucGAGuAuuA TTB (SEQ ID NO: 95), antisense UAAuAcucGAuuuucAGGAUU (SEQ ID NO: 96) (sense UCCUGAAAAUCGAGUAUUATT; antisense UAAUACUCGAUUUUCAGGAUU; sense: DNA at AGT, 2'-fluoro at CU, [invAb] at 5' end, 3' end, backbone not given here; antisense: sugars from the 5' end rrrfmfffmmfffffmmmmmm, backbone not given here)”, for which the “% KD mTSLP NIH3T3” value in the data set with mTSLP mRNA is 53.3 ± 0.3%. Also, in the data set with TSLP mRNA, the “% KD TSLP” value amounted to 23 ± 1.1%.

On to “25457-DC: siNA duplex: sense B cucAGGAAAuGGcAcAAGA TTB (SEQ ID NO: 97), antisense UCUuGuGccAuuuccuGAGUU (SEQ ID NO: 98) (sense CUCAGGAAAUGGCACAAGATT; antisense UCUUGUGCCAUUUCCUGAGUU; sense: DNA at AGT, 2'-fluoro at CU, [invAb] at 5' end, 3' end, backbone not given here; antisense: sugars from the 5' end rrrfmfmffmffffffmmmmm, backbone not given here)”, for which, in the data set with mTSLP mRNA, the “% KD mTSLP NIH3T3” value is 81.5 ± 3.7%. The “% KD TSLP” value with TSLP mRNA worked out at 32 ± 2%.
